Reference: patent US8853424B2 (Japan Science and Technology Agency, priority 2008, dated 2014)

Legend:
[1] = test system: transglutaminase (TGase); assay: Measurement of TG (TGase inhibitory activity, monodansyl cadaverine / N,N-dimethylcasein fluorescence, FDSS 3000); format: biochemical
How it was run: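 Compound (1 μL of 10 mM stock) added to 0.1 mL reaction: 100 mM HEPES-NaOH pH 7.5, 1 mM CaCl2, 20 μM monodansyl cadaverine, 0.05 mg/mL N,N-dimethylcasein, 5 μg/mL TGase. Rate of fluorescence change at 340 nm measured; DMSO control set to 100; TG50 is the concentration halving activity.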

[2] = test system: Truncated N-terminal huntington 150 Q-EGFP-Neuron 2a cells; assay: Measurement of x-Fold (polyglutamine aggregation inhibitory activity); format: cell-based
Protocol: In the present invention, the polyglutamine aggregation inhibitory activity (x-Fold) can be measured, for example, by the method described in the Example.
The number of the aggregated cells, and the total number of cells were counted by Array Scan V T1 (manufactured by Cellomics, Pittuburg, USA), and the ratio of the aggregated cells to the total number of cells was determined (x-Fold). […]

[3] = TGase activity with compound (10 mM, 1 μL in 0.1 ml enzyme reaction solution), DMSO control taken as 100
[4] = TGase inhibitory activity value, Table 1
[5] = polyglutamine aggregation inhibitory activity, Table 1
[6] = ratio of aggregated cells to total number of cells, compound 20 μM, 20 hr, almost 1 without compound, smaller = stronger inhibition

Compound | TGase activity remaining (% of DMSO control = 100) [1, 3] | TGase activity remaining (% of DMSO control = 100) [1, 4] | x-Fold [2, 5] | x-Fold [2, 6] | also measured
OB(c1ccc(COCc2ccc(B(O)c3ccc(C(F)(F)F)cc3)cc2)cc1)c1ccc(C(F)(F)F)cc1 [Example 143, bis(4-trifluoromethylphenylhydroxyboryl 4-benzyl)ether] | 118 | 118 | 0.90 | 0.90 | 
Cc1ccc(B(O)c2ccc(COCc3ccc(B(O)c4ccc(C)c(Cl)c4)cc3)cc2)cc1Cl [Example 144, bis(3-chloro-4-methylphenylhydroxyboryl 4-benzyl)ether] | 99 |  |  | 0.87 | 
OB(O)c1ccc(F)c(Cl)c1 [Example 145, (3-chloro-4-fluorophenyl)boronic acid] | 97 | 97 | 0.91 | 0.91 | 
Cc1cc(B(OCCN)c2ccccc2)ccc1B(OCCN)c1ccccc1 [Example 146, 1,4-bis(phenyl-2-aminoethoxyboryl) 2-methylbenzene] | 91 | 91 | 1.02 | 1.02 | 
NCCOB(c1ccccc1)c1ccccc1COCc1ccccc1B(OCCN)c1ccccc1 [Example 148, bis(2,2′-(phenyl-2-aminoethoxyboryl)benzyl)ether] | 68 | 68 | 1.00 | 1.00 | 
FC(F)(F)c1ccc(C(OB(c2ccccc2)c2ccc(COCc3ccc(B(OC(c4ccc(C(F)(F)F)cc4)c4ccccn4)c4ccccc4)cc3)cc2)c2ccccn2)cc1 (stereo not drawn) [Example 149, 4,4′-di((phenyl 1-(pyridin-2-yl)-1-trifluoromethylphenylmethoxyboryl)benzyl)ether] | 96 |  |  | 0.99 | 
Nc1ccccc1SB(c1ccccc1)c1ccccc1 [Example 150, diphenyl-2-aminophenylthioborane] | 2 | 2 | 0 | 0 | 
NCCSB(c1ccccc1)c1ccccc1 [Example 151, 2-aminoethylthiodiphenylborane] | 33 | 33 | 0.87 | 0.87 | 
CN(C)CCOB(c1ccccc1)c1ccc(COCc2ccc(B(OCCN(C)C)c3ccccc3)cc2)cc1 [Example 152, di(4,4′-phenyldimethylaminoethoxyboryl)benzylether] |  |  |  | 1.07 | TGase activity remaining (% of DMSO control = 100) ([1]; TGase inhibitory activity value, Table 1, listed as 1073): 54; x-Fold ([2]; polyglutamine aggregation inhibitory activity, Table 1, listed as 1073): 1.07
NCCNCCOB(c1ccccc1)c1ccccc1 [Example 154, diphenyl 2-aminoethylaminoethyl borinate] | 105 | 105 | 0.96- | 0.96 | 
FC(F)(F)c1ccc(B(OCc2ccccn2)c2ccc(C(F)(F)F)cc2)cc1 [Example 155, di(trifluoromethylphenyl) 2-pyridinomethylborinate] | 100 |  |  | 1.02 | 
CCCCB(CCCC)OC(=O)C(C)N (stereo not drawn) [Example 159, dibutyl(alanine-O,N)borane] | 102 | 102 | 0.96 | 0.96 | 
Cc1ccc(Cl)cc1B(OC(=O)C(N)CCCNC(N)=O)c1cc(Cl)ccc1C (stereo not drawn) [Example 160, di(3-chloro-6-methyl-phenyl)(citrullinate-O,N)borane] | 88 | 88 | 1.02 | 1.02 | 
Cc1ccc(B(OCC2CCCCN2C)c2ccc(C)c(Cl)c2)cc1Cl (stereo not drawn) [Example 163, di(3-chloro-4-methylphenyl)N-methylpiperidinomethylborinate] | 109 |  |  | 1.00 | 
COCOCc1ccc(B(OCCN(C)C)c2ccc(Oc3ccc(B(OCCN(C)C)c4ccccc4)cc3)cc2)cc1 [Example 167, (4-(phenyl-dimethylaminoethoxyboryl)phenyl)-(4′-(methoxymethoxymethylphenyl-dimethylaminoethoxyboryl)phenyl)ether] | 21 | 21 | 0.71 | 0.71 | 
CNCCOB(c1ccccc1)c1ccc(Oc2ccc(B(OCCNC)c3ccc(COCOC)cc3)cc2)cc1 [Example 168, (4-(phenyl-N-methylaminoethoxyboryl)phenyl)-(4′-(methoxymethoxymethylphenyl-N-methylaminoethoxyboryl)phenyl)ether] | 35 | 35 | 0.72 | 0.72 | 
Cc1ccc(Cl)cc1B(O)c1cc(Cl)ccc1C [Example 171, di(3-chloro-6-methylphenyl)borinic acid] | 98 |  |  | 0.71 | 
c1ccc(B2OCCN3CCN(CCOB(c4ccccc4)c4cccc(c4)COCc4cccc2c4)CC3)cc1 [Example 173, (3,3′-(phenylpiperazino-O,O-ethoxyboryl)benzyl)ether] | 122 | 122 | 1.06 | 1.06 | 
NCC(N)C(=O)OB(c1ccccc1)c1ccccc1 (stereo not drawn) [Example 174, diphenyl(2,3-diaminopropionate-O,N)borane] | 103 |  |  | 0.99 | TGase activity remaining (% of DMSO control = 100) ([1]; TGase inhibitory activity value, Table 1, listed as 2031-4): 103; x-Fold ([2]; polyglutamine aggregation inhibitory activity, Table 1, listed as 2031-4): 0.99
CCN(CC)CC.CN(C)c1ccc2c(-c3ccc(NC(=S)NCC(N)C(=O)OB(c4ccccc4)c4ccccc4)cc3C(=O)[O-])c3ccc(=[N+](C)C)cc-3oc2c1 (stereo not drawn) [Example 175, diphenyl(tetramethylrhodamine 2,3-diaminopropionate-O,N)borane] | 5 | 5 | 0.89 | 0.89 | 
CCN(CC)CC.CN(C)c1ccc2c(-c3ccc(NC(=S)NCCCCC(N)C(=O)OB(c4ccccc4)c4ccccc4)cc3C(=O)[O-])c3ccc(=[N+](C)C)cc-3oc2c1 (stereo not drawn) [Example 176, diphenyl(tetramethylrhodamine 2,6-diaminocapronate-O,N)borane] | 47 | 47 | 1.06 | 1.06 | 
NCCC(N)C(=O)OB(c1ccccc1)c1ccccc1 (stereo not drawn) [Example 178] | 142 |  |  | 0.89 | TGase activity remaining (% of DMSO control = 100) ([1]; TGase inhibitory activity value, Table 1, listed as 2039): 142; x-Fold ([2]; polyglutamine aggregation inhibitory activity, Table 1, listed as 2039): 0.89
NCCCC(N)C(=O)OB(c1ccccc1)c1ccccc1 (stereo not drawn) [Example 179, diphenyl(2,5-diaminopentanate-O,N)borane] | 127 |  |  | 0.99 | TGase activity remaining (% of DMSO control = 100) ([1]; TGase inhibitory activity value, Table 1, listed as 2044): 127; x-Fold ([2]; polyglutamine aggregation inhibitory activity, Table 1, listed as 2044): 0.99
Cc1ccc(B(OC(=O)c2ccccc2N)c2ccc(C)c(Cl)c2)cc1Cl [Example 180, di(3-chloro-4-methylphenyl)(anthranate-O,N)borane] | 35 | 35 | 0.98 | 0.98 | 
NCCOB(c1ccc(C(F)(F)F)cc1)c1ccc(C(F)(F)F)cc1 [Example 181, di(trifluoromethylphenyl) 2-aminoethylborinate] | 54 |  |  | 0.69 | 
Cc1ccc(B(OC(=O)C(N)CCC(N)=O)c2ccc(C)c(Cl)c2)cc1Cl (stereo not drawn) [Example 182, di(3-chloro-4-methylphenyl)(glutaminate-O,N)borane] | 137 | 137 | 1.01 | 1.01 | 
CCCCB(CCCC)OC(=O)C(N)CC(N)=O (stereo not drawn) [Example 183, dibutyl(asparagine-O,N)borane] | 91 | 91 | 1.02 | 1.02 | 
c1ccc(B(OCc2ccccn2)c2ccc(COCc3ccc(B(OCc4ccccn4)c4ccccc4)cc3)cc2)cc1 [Example 184, di(4-(phenyl-2-pyridylmethoxyboryl)benzyl)ether] | 94 | 94 | 0.95 | 0.95 | 
OB(Cc1ccc(OCc2ccc(B(O)c3ccccc3)cc2)cc1)Cc1ccc(OCc2ccc(B(O)c3ccccc3)cc2)cc1 [Example 187, bis((4,4′-phenylhydroxyboryl)benzyloxybenzyl)hydroxyborane] | 106 | 106 | 0.97 | 0.97 | 
CCCNCCOB(c1ccc(C(F)(F)F)cc1)c1ccc(C(F)(F)F)cc1 [Example 188, di(trifluoromethylphenyl) 2-propylaminoethylborinate] | 91 |  |  | 0.98 | 
